Experimental data taken from US6204005A, “Immunoassay for toxic congeners of polychlorinated biphenyls” (priority 1995, dated 2001).

Key:
[1] = relative to 2,3,7,8-TCDD = 1.0; cited from earlier work
[2] = tested on: Hapten VII sera (polyclonal antibodies); test: Sera direct EIA with Hapten VII sera and competitor enzyme conjugate; assay type: binding, mice; conditions: for Assay sensitivity versus Hapten VII enzyme conjugate based assay: in words, Table 6
Experimental: The competitors A-E and Hapten VII were conjugated to the enzyme, amino modified Horseradish Peroxidase (HRP) (horseradish peroxidase commercially available from Sigma Chemical Co. (No. P-6782), St. Louis, Mo.; amino modified per R. Hsiao and H. Royer, Archives Biochem. Biophys., 198, 379-385 (1979) to give 6-24 free amines), using the carbodiimide mediated carboxyl activation procedure described for Hapten VII in Example 24. Hapten and competitor load were determined by UV/Vis spectroscopy, also as described for Hapten VII.
The direct EIA (immoblized antibody and competitor enzyme conjugate) was performed as follows. Serum or monoclonal antibody supernatant stored at -20° C. was diluted 1,000-40,000 fold with PBS which contained 0.1% Tween-20. This solution was dispensed (500 ul) into donkey anti-mouse second antibody coated tubes (DAM Tubes commercially available from Millipore Corp., Bedford, Mass.) and incubated at room temperature overnight. The antisera solution was decanted from the tubes and the tubes washed 3 times with distilled water. Non-specific sites in the tubes were blocked with 600 ul of BSA blocking buffer (EIA Blocking Buffer commercially available from Millipore Corp., Bedford, Mass.) and incubated for 2 hours at room temperature or overnight at 4° C. The blocking buffer was decanted and the tubes allowed to dry under ambient room conditions for at least 2 hours. The assay was performed by adding 500 ul of assay diluent (1% methanol (v/v) and 0.005% Tween-20 (w/v) in distilled water) to the required number of tubes followed by 10 ul of a methanol solution of the analyte (PCB congener). After a 5 minute incubation at room temperature, the solution was decanted and the tubes rinsed 3-4 times with tap water. The horseradish peroxidase competitor or Hapten VII conjugates were diluted 1,000-60,000 fold from 2-5 mg/ml stock solutions in PBS with conjugate diluent (Enzyme Conjugate Diluent commercially available from Millipore Corp., Bedford, Mass.). The enzyme conjugate (200 ul) was added to the tubes followed by a 5 minute incubation at room temperature. The conjugate solution was decanted and the tubes rinsed 3-4 times with tap water. Enzyme substrate solution (500 ul, KPL No. 50-76-04 commercially available from KPL Laboratories, Gaithersburg, Md.) was added and the tubes were incubated at room temperature for 5-15 minutes. The enzyme reaction was stopped with the addition of 500 ul of 1N HCl. The OD of the solution was determined at 450 nm. The data was plotted using Log (Congener Concentration) versus B/Bo (B=Sample Absorbance, Bo=Sample Blank Absorbance).
The direct EIA (Method 19) was used to evaluate sera samples taken on day 120.

[3] = tested on: antibody in serum immobilized on goat anti-rabbit second antibody coated tubes; test: Enzyme immunoassay (EIA) with HRP competitor or Hapten I conjugates, Aroclor 1248 analyte (Method D); assay type: binding; conditions: for Assay Response (I50): assay solution concentration of Aroclor 1248 producing 50% reduction in assay control signal, HRP conjugate of the listed competitor; for Relative Response: improvement in I50 sensitivity compared to homologous (Hapten I) based assay
Experimental: Serum stored at -20° C. was diluted 1,000-40,000 fold with PBS which contained 0.1% Tween-20. This solution was dispensed (500 μl) into goat anti-rabbit second antibody coated tubes (GAR Tubes commercially available from Millipore Corp., Bedford, Mass.) and incubated at room temperature overnight. The antisera solution was decanted from the tubes and the tubes were washed 3 times with distilled water. Non-specific sites in the tubes were blocked with 600 μl of a BSA blocking buffer (EIA Blocking Buffer commercially available from Millipore Corp., Bedford, Mass.) and incubated for 2 hours at room temperature or overnight at 4° C. The blocking buffer was decanted and the tubes allowed to dry under ambient room conditions for 2 hours or overnight. The assay was performed by adding 500 μl of assay diluent (1% methanol (v/v) and 0.005% Tween-20 (w/v) in distilled water) to the required number of tubes followed by 10 μl of a methanol solution which contained 0-50 ppm of Aroclor 1248. After a 5 minute incubation at room temperature, the solution was decanted and the tubes rinsed 3-4 times with tap water. The horseradish peroxidase-(HRP) competitor conjugate or Hapten I conjugates were diluted 100-100,000 fold from 2-5 mg/ml stock solutions in PBS with conjugate diluent (Enzyme Conjugate Diluent commercially available from Millipore Corp., Bedford, Mass.). Enzyme-competitor conjugate was added in 200 μl and the tubes were incubated at room temperature for 5 minutes. The conjugate solution was decanted and the tubes rinsed 3-4 times with tap water. Enzyme substrate solution (500 μl, KPL No. 50-76-04 commercially available from KPL Laboratories, Gaithersburg, Md.) was added and the tubes were incubated at room temperature for 3-15 minutes. The enzyme reaction was stopped with the addition of 500 μl of 1N HCl. The OD of the solution was determined at 450 nm and the I50 values were determined using a correlation of Log (Aroclor 1248 Concentration in the assay solution in parts per billion=ppb) versus B/Bo ratio where B=Sample Absorbance and Bo=Absorbance of the Blank Sample.
The competitors and Hapten I were conjugated to the enzyme, amino modified Horseradish Peroxidase (HRP) (horseradish peroxidase commercially available from Sigma Chemical Co. (No. P-6782), St. Louis, Mo.; amino modified per ref R. Hsiao and H. Royer, Archives Biochem. Biophysics, 198, 379-385 (1979) to give 6-24 free amines), using the carbodiimide mediated carboxyl activation procedure described for Hapten I in Example 5.
EIA analysis of Aroclor 1248 (Method D) was performed using horseradish peroxidase (HRP) Conjugates of the competitors illustrated in FIG. 4.

[4] = Table 7, Hapten VII sera and Competitor D direct EIA
[5] = Table 6, I50 of analyte 3,3',4,4'-tetrachlorobiphenyl with the listed competitor, Hapten VII sera

SMILES	TEF [1]	Assay Response (I50) [3] [ppb]	other results
Clc1ccc(-c2cc(Cl)c(Cl)cc2Cl)c(Cl)c1 [2,2',4,4',5-pentachloro-]	less than 0.00001	–	–
Clc1ccc(Cl)c(-c2cc(Cl)ccc2Cl)c1 [2,2',5,5'-tetrachloro]	less than 0.00001	–	I50 [2, 4]: > 20,000 ppb
Clc1ccc(Cl)c(-c2ccccc2Cl)c1 [2,2',5-trichloro-]	less than 0.00001	–	–
Clc1cc2c(cc1Cl)Oc1cc(Cl)c(Cl)cc1O2 [2,3,7,8-TCDD, 2,3,7,8-tetrachlorodibenzo-p-dioxin]	1.0	–	–
Clc1ccc(-c2ccccc2Cl)cc1 [2,4'-dichloro-]	less than 0.00001	–	–
Clc1ccc(-c2ccc(Cl)cc2Cl)cc1 [2,4,4',trichloro-]	less than 0.00001	–	–
Clc1ccc(-c2ccc(Cl)cc2)cc1 [4,4'-dichloro]	–	–	I50 [2, 4]: 4,300 ppb
Clc1ccc(-c2cc(Cl)c(Cl)c(Cl)c2)cc1 [BZ No. 81, 3,4,4',5-tetra]	0.01	–	–
Clc1ccc(-c2ccc(Cl)c(Cl)c2Cl)cc1Cl [BZ No. 105, 2,3,3',4,4'-penta]	0.001	–	–
Clc1ccc(-c2cc(Cl)c(Cl)c(Cl)c2Cl)cc1 [BZ No. 114, 2,3,4,4',5-penta]	0.0001	–	–
Clc1ccc(-c2cc(Cl)c(Cl)cc2Cl)cc1Cl [BZ No. 118, 2,3',4,4',5-penta]	0.00	–	–
Clc1ccc(-c2cc(Cl)c(Cl)c(Cl)c2)c(Cl)c1 [BZ No. 123, 2,3',4,4',5'-penta]	0.001	–	–
Clc1ccc(-c2cc(Cl)c(Cl)c(Cl)c2Cl)cc1Cl [BZ No. 156, 2,3,3',4,4',5-hexa]	0.001	–	–
Clc1cc(-c2ccc(Cl)c(Cl)c2Cl)cc(Cl)c1Cl [BZ No. 157, 2,3,3',4,4',5-hexa]	0.00002	–	–
Clc1cc(Cl)c(-c2cc(Cl)c(Cl)c(Cl)c2)cc1Cl [BZ No. 167, 2,3',4,4',5,5-hexa]	0.001	–	–
Clc1cc(-c2cc(Cl)c(Cl)c(Cl)c2)cc(Cl)c1Cl [BZ No. 169, 3,3',4,4',5,5-hexa]	0.05	–	–
Clc1cc(-c2cc(Cl)c(Cl)c(Cl)c2Cl)cc(Cl)c1Cl [BZ No. 189, 2,3,3',4,4',5,5'-hepta]	0.001	–	–
O=C(O)CCc1ccc(Cl)c(Cl)c1 [Competitor 9]	–	47	Relative Response [3]: 12 fold
O=C(O)CCCCc1cc(Cl)ccc1Cl [Competitor 11]	–	18	Relative Response [3]: 32 fold
O=C(O)CCCC(=O)c1ccc(Cl)c(Cl)c1 [Competitor 12]	–	23	Relative Response [3]: 24 fold
O=C(O)CCCC(=O)Nc1ccc(Cl)c(Cl)c1 [Competitor 13]	–	2000	Relative Response [3]: < 1 fold
O=C(O)C=Cc1ccc(Cl)c(Cl)c1 [Competitor 14]	–	64	Relative Response [3]: 9 fold
O=C(O)CCCOc1ccc(Cl)cc1Cl [Competitor 15]	–	49	Relative Response [3]: 12 fold
O=C(O)CCCOc1ccc(Cl)c(Cl)c1 [Competitor 16]	–	31	Relative Response [3]: 18 fold
O=C(O)CCCSc1cc(Cl)ccc1Cl [Competitor 17]	–	33	Relative Response [3]: 18 fold
O=C(O)CCCOc1ccc(Cl)c(Cl)c1 [Competitor B]	–	–	I50 [2, 5]: 3.5 ppb; Assay sensitivity versus Hapten VII enzyme conjugate based assay [2]: significantly more sensitive
O=C(O)CCCSc1cc(Cl)ccc1Cl [Competitor C]	–	–	I50 [2, 5]: 1.5 ppb; Assay sensitivity versus Hapten VII enzyme conjugate based assay [2]: significantly more sensitive
O=C(O)CCCC(=O)c1ccc(Cl)c(Cl)c1 [Competitor D]	–	–	I50 [2, 5]: 3 ppb; Assay sensitivity versus Hapten VII enzyme conjugate based assay [2]: significantly more sensitive
O=C(O)CCCCCOc1ccc(-c2cc(Cl)c(Cl)cc2Cl)c(Cl)c1 [Hapten I, 6-(2,2',4',5'-Tetrachlorobiphenyloxy)-4-yl hexanoic acid]	–	570	–
O=C(O)CCCCCOc1ccc(-c2ccc(Cl)c(Cl)c2)cc1Cl [Hapten VII, 6-(3,3',4'-Trichlorobiphenyloxy)-4-yl hexanoic acid]	–	–	I50 [2, 5]: 30-40 ppb
